Test results as given in US10766917B2, “Nucleotides for the treatment of cancer” (IDENIX PHARMACEUTICALS LLC, priority 2015, dated 2020).

Columns and labels:
Test in all cases: In vitro inhibition, CellTiter-Glo (CTG) assay
Format in all cases: cell-based
CFPAC-1 = system: CFPAC-1
Description: (§1) Cells were grown in RPMI-1640 supplemented with L-Glutamine and 10% FBS of the following cell lines:
(§2) CCRF-CEM; HL-60; KG-1; CFPAC-1; MiaPACA-2; BxPC-3; HepG2; MDA-MB-231; HCT-116; A498; and NCI-H69
(§3) 18, 96 well plates of each cell line were seeded with the optimized number of cells per well in a total volume of 50 μper well. The plates were left overnight. Plate wells were seeded with 100 pt media for media control. The following day, cells were exposed to test compounds as described below. At the same time as drug exposure, a CTG assay was conducted on the 18th plate for the 0 hr count.
(§4) The compounds were added to cells and medium already on the plate to give desired final concentrations. 50 μL media were added to cell control wells, and 50 μL of mix added to vehicle control wells. 10 μM Doxorubicin was added to appropriate wells as control. Cells exposed to test compound were incubated at 37° C. for 72 hr followed by a CTG assay.
(§5) At the end of the 72 hr exposure period, plates were removed for a CellTiter-Glo (CTG) assay from a 37° C., 5% CO2 incubator and placed on the bench at room temperature for 30 mins. 100 μL of CellTiter-Glo reagent was added and mixed for 2 mins, followed by a further 10 min incubation at room temperature. Luminescence was recorded using Synergy 4.0.

HCT-116 = system: HCT-116
Description: as §1, §2, §3, §4, §5

MDA-MB-231 = system: MDA-MB-231
Description: as §1, §2, §3, §4, §5

BxPC-3 = system: BxPC-3
Description: as §1, §2, §3, §4, §5

A498 = system: A498
Description: as §1, §2, §3, §4, §5

NCI-H69 = system: NCI-H69
Description: as §1, §2, §3, §4, §5

HepG2 = system: HepG2
Description: as §1, §2, §3, §4, §5

MiaPACA-2 = system: MiaPACA-2
Description: as §1, §2, §3, §4, §5

[1] = Homo sapiens, MDA-MB-231, 72 hr exposure
[2] = Homo sapiens, A498, 72 h, 72 hr exposure
[3] = Homo sapiens, NCI-H69, 72 h, 72 hr exposure
[4] = Homo sapiens, CFPAC-1, 72 h, 72 hr exposure
[5] = Homo sapiens, HCT-116, 72 h, 72 hr exposure
[6] = Homo sapiens, BXPC-3, 72 h, 72 hr exposure
[7] = Homo sapiens, HepG2, 72 h, 72 hr exposure
[8] = Homo sapiens, MIA PaCa-2, 72 h, 72 hr exposure
[9] = Homo sapiens, NCI-H69, 72 hr exposure

| SMILES | IC50 (CFPAC-1; 72 hr exposure) | IC50 (HCT-116; 72 hr exposure) | IC50 (MDA-MB-231; [1]) | IC50 (BxPC-3; 72 hr exposure) | IC50 (A498; [2]) | IC50 (NCI-H69; [3]) | IC50 (HepG2; 72 hr exposure) | IC50 (MiaPACA-2; 72 hr exposure) | IC50 (CFPAC-1; [4]) | IC50 (HCT-116; [5]) | IC50 (BxPC-3; [6]) | IC50 (HepG2; [7]) | IC50 (MiaPACA-2; [8]) | IC50 (A498; 72 hr exposure) | IC50 (NCI-H69; 72 hr exposure) | IC50 (MDA-MB-231; 72 hr exposure) | other results |
| --- | --- | --- | --- | --- | --- | --- | --- | --- | --- | --- | --- | --- | --- | --- | --- | --- | --- |
| CC(C)(C)SSCCOP(=O)(NCc1ccccc1)OC[C@H]1O[C@@H](n2ccc(N)nc2=O)C(F)(F)[C@@H]1O (single isomer, unassigned) [111 (diastereomer 1)] | 10 to 100 µM | 10 to 100 µM | 10 to 100 µM | 10 to 100 µM | 10 to 100 µM | 10 to 100 µM | 10 to 100 µM | 10 to 100 µM |  |  |  |  |  |  |  |  |  |
| COC(=O)[C@H](CC(C)C)NP(=O)(N[C@@H](CC(C)C)C(=O)OC)OC[C@H]1O[C@@H](n2ccc(N)nc2=O)C(F)(F)[C@@H]1O [Compound 109, Methyl (2S)-2-[[[(2R,3R,5R)-5-(4-amino-2-oxo-pyrimidin-1-yl)-4,4-difluoro-3-hydroxy-tetrahydrofuran-2-yl]methoxy-[[(1S)-1-methoxycarbonyl-3-methyl-butyl]amino]phosphoryl]amino]-4-methyl-pentanoate] |  |  | 10 to 100 µM |  | 10 to 100 µM | 10 to 100 µM |  |  | 1 to 10 µM | 10 to 100 µM | 10 to 100 µM | 1 to 10 µM | 10 to 100 µM |  |  |  |  |
| CC(C)C(=O)OC[C@@H](C)NP1(=O)OC[C@H]2O[C@@H](n3ccc(N)nc3=O)C(F)(F)[C@@H]2O1 (single isomer, unassigned) [105 (diastereomer 1)] |  | < 1 µM | 10 to 100 µM |  |  |  |  |  | < 1 µM |  | < 1 µM | < 1 µM | < 1 µM | 10 to 100 µM | 1 to 10 µM |  |  |
| CC(C)(C)C(=O)SCCOP1(=O)OC[C@H]2O[C@@H](n3ccc(N)nc3=O)C(F)(F)[C@@H]2O1 (single isomer, unassigned) [104 (diastereomer 1)] |  |  | 1 to 10 µM |  |  | 1 to 10 µM |  |  | < 1 µM | 1 to 10 µM | < 1 µM | < 1 µM | < 1 µM | 10 to 100 µM |  |  |  |
| CCCC(CCC)C(=O)Nc1ccn([C@@H]2O[C@@H]3COP(=O)(N[C@H](C)C(=O)OC(C)C)O[C@H]3C2(F)F)c(=O)n1 (single isomer, unassigned) [116 (diastereomer 2)] | 10 to 100 µM | 10 to 100 µM |  | 10 to 100 µM |  |  | 10 to 100 µM | 10 to 100 µM |  |  |  |  |  | 10 to 100 µM | 10 to 100 µM | 10 to 100 µM |  |
| COC(=O)[C@H](CCCCNP1(=O)OC[C@H]2O[C@@H](n3ccc(N)nc3=O)C(F)(F)[C@@H]2O1)NC(=O)OC(C)(C)C (single isomer, unassigned) [106 (diastereomer 2)] | 1 to 10 µM | 1 to 10 µM |  | 1 to 10 µM |  |  | < 1 µM | 1 to 10 µM |  |  |  |  |  | 10 to 100 µM | 10 to 100 µM | 10 to 100 µM |  |
| CC(C)OC(=O)[C@@H](C)NP1(=O)OC[C@H]2O[C@@H](n3ccc(N)nc3=O)C(F)(F)[C@@H]2O1 (single isomer, unassigned) [101 (diastereomer 2)] |  | 10 to 100 µM |  |  |  |  |  |  | 1 to 10 µM |  | 10 to 100 µM | 1 to 10 µM | 1 to 10 µM | 10 to 100 µM | 10 to 100 µM | 10 to 100 µM |  |
| CC(C)(C)C(=O)SCCOP1(=O)OC[C@H]2O[C@@H](n3ccc(N)nc3=O)C(F)(F)[C@@H]2O1 (single isomer, unassigned) [104 (diastereomer 2)] | < 1 µM | 1 to 10 µM |  | < 1 µM |  |  | < 1 µM | < 1 µM |  |  |  |  |  | < 1 µM | 1 to 10 µM | 1 to 10 µM |  |
| CC(C)OP(=O)(OC[C@H]1O[C@@H](n2ccc(N)nc2=O)C(F)(F)[C@@H]1O)OC(C)C [Compound 119] |  |  | 10 to 100 µM |  | 10 to 100 µM | 10 to 100 µM |  |  | 10 to 100 µM | 10 to 100 µM | 10 to 100 µM | 10 to 100 µM | 10 to 100 µM |  |  |  |  |
| CC(C)(C)SSCCOP(=O)(NCc1ccccc1)OC[C@H]1O[C@@H](n2ccc(N)nc2=O)C(F)(F)[C@@H]1O (single isomer, unassigned) [111 (diastereomer 2)] | < 1 µM | < 1 µM |  | 1 to 10 µM |  |  | < 1 µM | < 1 µM |  |  |  |  |  | 10 to 100 µM | 10 to 100 µM | 10 to 100 µM |  |
| CC(C)C(=O)OC[C@@H](C)NP1(=O)OC[C@H]2O[C@@H](n3ccc(N)nc3=O)C(F)(F)[C@@H]2O1 (single isomer, unassigned) [105 (diastereomer 2)] | 1 to 10 µM | 10 to 100 µM |  | 1 to 10 µM |  |  | < 1 µM | 1 to 10 µM |  |  |  |  |  | 1 to 10 µM | 10 to 100 µM | 10 to 100 µM |  |
| CC(C)OC(=O)[C@@H](C)NP1(=O)OC[C@H]2O[C@@H](n3ccc(N)nc3=O)C(F)(F)[C@@H]2O1 (single isomer, unassigned) [101 (diastereomer 1)] | < 1 µM | 1 to 10 µM | 10 to 100 µM | 10 to 100 µM |  |  | < 1 µM | < 1 µM |  |  |  |  |  | 1 to 10 µM |  |  | IC50 (NCI-H69; [9]): 10 to 100 µM |
| Nc1ccn([C@@H]2O[C@@H]3COP(=O)(O)O[C@H]3C2(F)F)c(=O)n1 [Compound 107, 1-[(4aR,6R,7aR)-7,7-difluoro-2-hydroxy-2-oxo-4,4a,6,7a-tetrahydrofuro[3,2-d][1,3,2]dioxaphosphinin-6-yl]-4-amino-pyrimidin-2-one] |  |  | 10 to 100 µM |  | 10 to 100 µM | 1 to 10 µM |  |  | < 1 µM | 1 to 10 µM | < 1 µM | < 1 µM | < 1 µM |  |  |  |  |
| CCOC(=O)[C@H](CC(C)C)NP(=O)(O)OC[C@H]1O[C@@H](n2ccc(N)nc2=O)C(F)(F)[C@@H]1O [Compound 115, [(2R,3R,5R)-5-(4-amino-2-oxo-pyrimidin-1-yl)-4,4-difluoro-3-hydroxy-tetrahydrofuran-2-yl]methoxy-N-[(1S)-1-ethoxycarbonyl-3-methyl-butyl]phosphonamidic acid] |  |  | 10 to 100 µM |  | 10 to 100 µM | 1 to 10 µM |  |  | < 1 µM | < 1 µM | 1 to 10 µM | < 1 µM | < 1 µM |  |  |  |  |
| Nc1ccn([C@@H]2O[C@H](COP(=O)(OCc3ccc([N+](=O)[O-])o3)OCc3ccc([N+](=O)[O-])o3)[C@@H](O)C2(F)F)c(=O)n1 [Compound 114, [(2R,3R,5R)-5-(4-amino-2-oxo-pyrimidin-1-yl)-4,4-difluoro-3-hydroxy-tetrahydrofuran-2-yl]methyl bis[(5-nitro-2-furyl)methyl] phosphate] |  |  | 10 to 100 µM |  |  |  |  |  |  |  |  |  |  |  |  |  | IC50 (CFPAC-1; Homo sapiens, CFPAC-1, 72 hr exposure): < 1 µM; IC50 (HCT-116; Homo sapiens, HCT-116, 72 hr exposure): 1 to 10 µM; IC50 (BxPC-3; Homo sapiens, BXPC-3, 72 hr exposure): < 1 µM; IC50 (A498; Homo sapiens, A498, 72 hr exposure): < 1 µM; IC50 (NCI-H69; [9]): 10 to 100 µM; IC50 (HepG2; Homo sapiens, HepG2, 72 hr exposure): < 1 µM; IC50 (MiaPACA-2; Homo sapiens, MIA PaCa-2, 72 hr exposure): < 1 µM |
| COC(=O)[C@H](CCCCNP1(=O)OC[C@H]2O[C@@H](n3ccc(N)nc3=O)C(F)(F)[C@@H]2O1)NC(=O)OC(C)(C)C (single isomer, unassigned) [106 (diastereomer 1)] |  | 10 to 100 µM | 10 to 100 µM | 10 to 100 µM | 10 to 100 µM | 10 to 100 µM |  |  | 1 to 10 µM |  |  | < 1 µM | 1 to 10 µM |  |  |  |  |
| CCCC(CCC)C(=O)Nc1ccn([C@@H]2O[C@@H]3COP(=O)(N[C@H](C)C(=O)OC(C)C)O[C@H]3C2(F)F)c(=O)n1 (single isomer, unassigned) [116 (diastereomer 1)] |  |  | 10 to 100 µM |  | 10 to 100 µM | 10 to 100 µM |  |  | 10 to 100 µM | 10 to 100 µM | 10 to 100 µM | 10 to 100 µM | 10 to 100 µM |  |  |  |  |
| CC(C)(CO)C(=O)SCCOP(=O)(O)OC[C@H]1O[C@@H](n2ccc(N)nc2=O)C(F)(F)[C@@H]1O [Compound 118] |  |  | 1 to 10 µM |  | < 1 µM | < 1 µM |  |  | < 1 µM | < 1 µM | < 1 µM | < 1 µM | < 1 µM |  |  |  |  |
